From patent publication US9688691B2, “Macrocyclic quinazole derivatives and their use as MTKI” (Janssen Pharmaceutica NV, priority 2004, dated 2017) come the findings set out here.

A word on the inhibition: it is the relative decrease from the control value, in per cent.

Type in all cases: biochemical
The target of test [1] is cSRC (h) (Homo sapiens, UniProt P12931). The test is described as follows: Kinase profiling, glass-fiber filter technology: cSRC. The settings on record: test concentration of 10^−6 M; read-out: cSRC inhibition score. Here is the method: (§1) The in vitro inhibition of a panel of kinases was assessed using the glass-fiber filter technology as described by Davies, S. P. et al., Biochem J. (2000), 351; p. 95-105.
cSRC (h), sequence (P12931 whole entry): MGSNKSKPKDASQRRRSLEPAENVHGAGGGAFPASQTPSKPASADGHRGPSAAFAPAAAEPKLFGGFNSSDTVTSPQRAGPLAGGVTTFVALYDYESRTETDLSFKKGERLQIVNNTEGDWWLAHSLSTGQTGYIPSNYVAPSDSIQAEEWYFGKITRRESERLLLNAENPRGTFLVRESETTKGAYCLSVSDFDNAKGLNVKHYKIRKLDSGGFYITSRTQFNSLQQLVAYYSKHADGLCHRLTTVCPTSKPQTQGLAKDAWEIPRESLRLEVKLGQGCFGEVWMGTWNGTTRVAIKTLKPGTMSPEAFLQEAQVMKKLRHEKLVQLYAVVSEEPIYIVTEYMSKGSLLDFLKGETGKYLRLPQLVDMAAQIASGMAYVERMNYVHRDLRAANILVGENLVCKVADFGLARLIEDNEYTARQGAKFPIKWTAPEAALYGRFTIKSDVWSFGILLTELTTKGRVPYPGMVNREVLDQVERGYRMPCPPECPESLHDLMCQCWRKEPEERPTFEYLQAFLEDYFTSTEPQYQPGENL
(§2) In the glass-fiber filter technology the activity of the kinase of interest is measured using an appropriate substrate that is incubated with the aforementioned kinase protein in the presence of (^33P) radiolabeled ATP. (^33P) Phosporylation of the substrate is subsequently measured as radioactivity bound on a glassfiber-filter.
(§3) All kinases are pre-diluted to a 10× working concentration prior to addition into the assay. The composition of the dilution buffer for each kinase is detailed below.
(§4) All substrates are dissolved and diluted to working stocks in de-ionised water.
(§5) In a final reaction volume of 25 μl, cSRC (h) (5-10 mU) is incubated with 8 mM MOPS pH 7.0, 0.2 mM EDTA, 250 μM KVEKIGEGTYGVVYK (Cdc2 peptide), 10 mM MgAcetate and [γ-^33P-ATP] (specific activity approx. 500 cpm/pmol, concentration as required). The reaction is initiated by the addition of the MgATP mix. After incubation for 40 minutes at room temperature, the reaction is stopped by the addition of 5 μl of a 3% phosphoric acid solution.
10 μl of the reaction is then spotted onto a P30 filtermat and washed three times for 5 minutes in 75 mM phosphoric acid and once in methanol prior to drying and scintillation counting.

The target in test [2] is Fyn human (Homo sapiens, UniProt P06241). The test is described as follows: Kinase profiling, glass-fiber filter technology: Fyn. The settings on record: test concentration of 10^−6 M; read-out: Fyn inhibition score. On the procedure: as §1, §2, §3, §4
Fyn human, sequence (P06241 whole entry): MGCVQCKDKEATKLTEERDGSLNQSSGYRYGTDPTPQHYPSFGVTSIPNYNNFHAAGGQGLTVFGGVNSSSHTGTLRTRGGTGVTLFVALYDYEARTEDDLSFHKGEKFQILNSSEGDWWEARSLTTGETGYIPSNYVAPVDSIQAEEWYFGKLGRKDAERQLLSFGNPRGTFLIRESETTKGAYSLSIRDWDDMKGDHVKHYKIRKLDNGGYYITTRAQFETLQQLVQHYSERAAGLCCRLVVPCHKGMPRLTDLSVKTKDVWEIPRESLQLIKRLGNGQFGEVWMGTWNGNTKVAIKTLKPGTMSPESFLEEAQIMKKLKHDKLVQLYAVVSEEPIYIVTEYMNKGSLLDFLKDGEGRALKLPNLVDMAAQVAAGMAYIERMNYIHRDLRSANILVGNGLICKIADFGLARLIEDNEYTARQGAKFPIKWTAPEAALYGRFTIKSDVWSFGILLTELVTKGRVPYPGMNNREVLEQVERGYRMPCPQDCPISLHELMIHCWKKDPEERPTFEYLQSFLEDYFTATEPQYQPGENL
as §5, with “Fyn human” for “cSRC (h)”, “50” for “8”, “Tris” for “MOPS”, “7.5, 0.1” for “7.0, 0.2”, “EGTA, 0.1 mM Na3VO4,” for “EDTA,”, “solution. 10 μl of the reaction is then spotted onto a P30 filtermat and washed three times for 5 minutes in 75 mM phosphoric acid and once in methanol prior to drying and scintillation counting.” for “solution.”

The target in test [3] is Lyn (h) (Homo sapiens, UniProt P07948). Kind of test: Kinase profiling, glass-fiber filter technology: Lyn. The settings on record: test concentration of 10^−6 M; read-out: Lyn inhibition score. Here is the method: as §1, §2, §3, §4
Lyn (h), sequence (P07948 whole entry): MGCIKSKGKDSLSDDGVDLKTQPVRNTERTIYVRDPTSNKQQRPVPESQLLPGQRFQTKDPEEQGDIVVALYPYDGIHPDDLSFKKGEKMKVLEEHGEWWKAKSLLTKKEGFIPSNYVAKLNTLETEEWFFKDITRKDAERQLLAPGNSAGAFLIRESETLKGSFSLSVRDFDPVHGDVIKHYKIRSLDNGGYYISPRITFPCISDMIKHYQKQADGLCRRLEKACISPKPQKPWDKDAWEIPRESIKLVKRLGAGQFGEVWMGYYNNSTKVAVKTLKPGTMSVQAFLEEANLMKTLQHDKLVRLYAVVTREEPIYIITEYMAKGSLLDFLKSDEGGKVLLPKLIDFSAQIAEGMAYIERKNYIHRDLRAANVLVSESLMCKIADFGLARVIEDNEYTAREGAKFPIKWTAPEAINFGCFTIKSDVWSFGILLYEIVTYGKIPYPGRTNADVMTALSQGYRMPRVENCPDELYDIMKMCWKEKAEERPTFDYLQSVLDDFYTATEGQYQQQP
(§6) In a final reaction volume of 25 μl, Lyn (h) (5-10 mU) is incubated with 50 mM Tris pH 7.5, 0.1 mM EGTA, 0.1 mM Na3VO4, 0.1% β-mercaptoethanol, 0.1 mg/ml poly(Glu, Tyr) 4:1, 10 mM MgAcetate and [γ-^33P-ATP] (specific activity approx. 500 cpm/pmol, concentration as required). The reaction is initiated by the addition of the MgATP mix. After incubation for 40 minutes at room temperature, the reaction is stopped by the addition of 5 μl of a 3% phosphoric acid solution. 10 μl of the reaction is then spotted onto a Filtermat A and washed three times for 5 minutes in 75 mM phosphoric acid and once in methanol prior to drying and scintillation counting.

The target in test [4] is ErbB4 (h) (Homo sapiens, UniProt Q15303). Kind of test: Kinase profiling, glass-fiber filter technology: ErbB4. The settings on record: test concentration of 10^−6 M; read-out: ErbB4 inhibition score. On the procedure: as §1, §2, §3, §4
ErbB4 (h), sequence (Q15303 26-1308): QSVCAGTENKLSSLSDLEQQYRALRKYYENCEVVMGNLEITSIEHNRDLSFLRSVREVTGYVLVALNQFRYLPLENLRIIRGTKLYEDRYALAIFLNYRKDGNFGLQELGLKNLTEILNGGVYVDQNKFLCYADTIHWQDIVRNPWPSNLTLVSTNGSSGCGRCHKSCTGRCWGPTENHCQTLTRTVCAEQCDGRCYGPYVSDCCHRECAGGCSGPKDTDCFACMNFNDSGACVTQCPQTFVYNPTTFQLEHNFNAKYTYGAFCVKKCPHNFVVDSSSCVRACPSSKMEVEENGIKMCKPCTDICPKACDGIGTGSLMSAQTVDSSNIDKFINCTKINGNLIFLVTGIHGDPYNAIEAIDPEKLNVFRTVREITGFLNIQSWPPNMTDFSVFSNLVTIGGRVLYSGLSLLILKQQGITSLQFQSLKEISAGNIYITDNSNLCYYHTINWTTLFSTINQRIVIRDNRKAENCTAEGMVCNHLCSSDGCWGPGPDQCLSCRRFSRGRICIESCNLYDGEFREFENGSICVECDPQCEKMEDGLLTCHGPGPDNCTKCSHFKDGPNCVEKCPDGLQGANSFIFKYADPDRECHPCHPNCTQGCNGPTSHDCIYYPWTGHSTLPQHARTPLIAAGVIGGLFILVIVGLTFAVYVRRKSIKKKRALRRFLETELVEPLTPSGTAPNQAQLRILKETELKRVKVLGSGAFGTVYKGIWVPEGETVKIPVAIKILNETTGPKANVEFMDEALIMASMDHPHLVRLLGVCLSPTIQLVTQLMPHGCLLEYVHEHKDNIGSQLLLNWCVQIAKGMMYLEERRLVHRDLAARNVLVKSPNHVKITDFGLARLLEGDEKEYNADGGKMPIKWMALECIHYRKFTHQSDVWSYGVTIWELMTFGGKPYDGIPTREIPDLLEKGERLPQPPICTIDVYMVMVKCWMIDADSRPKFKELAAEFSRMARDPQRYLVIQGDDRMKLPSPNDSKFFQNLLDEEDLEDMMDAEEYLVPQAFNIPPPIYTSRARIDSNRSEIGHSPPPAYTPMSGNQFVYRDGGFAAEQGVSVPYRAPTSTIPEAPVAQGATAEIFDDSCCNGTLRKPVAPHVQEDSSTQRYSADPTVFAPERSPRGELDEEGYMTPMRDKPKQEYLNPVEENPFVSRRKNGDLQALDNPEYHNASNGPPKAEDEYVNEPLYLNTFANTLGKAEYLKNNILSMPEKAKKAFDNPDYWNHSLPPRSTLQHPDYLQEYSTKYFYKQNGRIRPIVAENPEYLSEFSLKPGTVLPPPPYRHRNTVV
(§7) In a final reaction volume of 25 μl, ErbB4 (h) (5-10 mU) is incubated with 8 mM MOPS pH 7.0, 0.2 mM EDTA, 10 mM MnCl2, 0.1 mg/ml poly(Glu, Tyr) 4:1, 10 mM MgAcetate and [γ-33P-ATP] (specific activity approx. 500 cpm/pmol, concentration as required). The reaction is initiated by the addition of the MgATP mix. After incubation for 40 minutes at room temperature, the reaction is stopped by the addition of 5 μl of a 3% phosphoric acid solution. 10 μl of the reaction is then spotted onto a Filtermat A and washed three times for 5 minutes in 75 mM phosphoric acid and once in methanol prior to drying and scintillation counting.

Test [5] has as its target Fgr human (Homo sapiens, UniProt P09769). The test is described as follows: Kinase profiling, glass-fiber filter technology: Fgr. The settings on record: test concentration of 10^−6 M; read-out: Fgr inhibition score. On the procedure:
as §1, §2, §3, §4
as §7, with “Fgr human” for “ErbB4 (h)”, “EDTA,” for “EDTA, 10 mM MnCl2,”, “[γ-^33P-ATP]” for “[γ-33P-ATP]”

In test [6] the target is Flt1 human (Homo sapiens, UniProt P17948). Kind of test: Kinase profiling, glass-fiber filter technology: Flt1. The settings on record: test concentration of 10^−6 M; read-out: Flt1 inhibition score. Here is the method: as §1, §2, §3, §4
Flt1 human, sequence (P17948 27-1338): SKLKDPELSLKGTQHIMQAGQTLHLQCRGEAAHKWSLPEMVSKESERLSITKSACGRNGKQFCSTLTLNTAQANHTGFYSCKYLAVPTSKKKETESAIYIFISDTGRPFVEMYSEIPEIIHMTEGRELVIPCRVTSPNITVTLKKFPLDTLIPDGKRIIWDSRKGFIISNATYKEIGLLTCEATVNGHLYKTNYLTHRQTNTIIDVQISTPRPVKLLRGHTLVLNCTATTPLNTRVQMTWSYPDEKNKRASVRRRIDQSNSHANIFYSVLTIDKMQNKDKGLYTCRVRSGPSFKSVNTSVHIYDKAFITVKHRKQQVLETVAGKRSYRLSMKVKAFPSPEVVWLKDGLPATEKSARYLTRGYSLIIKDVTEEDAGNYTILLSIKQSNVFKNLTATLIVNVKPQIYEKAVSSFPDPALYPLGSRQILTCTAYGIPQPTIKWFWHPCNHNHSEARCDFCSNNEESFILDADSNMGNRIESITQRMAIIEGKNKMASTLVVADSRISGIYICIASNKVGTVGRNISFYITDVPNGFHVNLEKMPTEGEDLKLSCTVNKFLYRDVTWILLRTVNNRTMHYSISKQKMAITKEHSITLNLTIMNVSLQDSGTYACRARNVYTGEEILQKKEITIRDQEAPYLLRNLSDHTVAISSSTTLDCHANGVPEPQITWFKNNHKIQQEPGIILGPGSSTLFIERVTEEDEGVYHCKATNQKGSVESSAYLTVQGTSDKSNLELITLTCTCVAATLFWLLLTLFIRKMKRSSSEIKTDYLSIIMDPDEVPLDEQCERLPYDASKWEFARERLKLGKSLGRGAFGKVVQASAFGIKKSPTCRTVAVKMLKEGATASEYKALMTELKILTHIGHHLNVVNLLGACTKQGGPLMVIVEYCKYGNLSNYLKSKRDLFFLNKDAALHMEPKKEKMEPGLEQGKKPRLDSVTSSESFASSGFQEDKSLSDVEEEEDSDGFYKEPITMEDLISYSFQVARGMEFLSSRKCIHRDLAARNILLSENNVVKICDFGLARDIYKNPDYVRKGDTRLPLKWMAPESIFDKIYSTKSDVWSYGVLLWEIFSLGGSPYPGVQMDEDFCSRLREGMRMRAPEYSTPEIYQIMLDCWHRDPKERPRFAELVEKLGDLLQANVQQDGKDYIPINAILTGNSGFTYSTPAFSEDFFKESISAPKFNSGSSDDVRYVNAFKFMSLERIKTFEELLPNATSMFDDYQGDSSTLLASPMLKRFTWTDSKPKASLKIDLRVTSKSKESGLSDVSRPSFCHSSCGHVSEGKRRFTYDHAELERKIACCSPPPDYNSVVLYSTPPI
as §7, with “Flt1 human” for “ErbB4 (h)”, “250 μM KKKSPGEYVNIEFG,” for “10 mM MnCl2, 0.1 mg/ml poly(Glu, Tyr) 4:1,”, “[γ-^33P-ATP]” for “[γ-33P-ATP]”, “P30 filtermat” for “Filtermat A”

The target in test [7] is Blk (m) (Mus musculus, UniProt P16277). Kind of test: Kinase profiling, glass-fiber filter technology: Blk. The settings on record: test concentration of 10^−6 M; read-out: Blkl inhibition score. Here is the method: as §1, §2, §3, §4
as §6, with “Blk (m)” for “Lyn (h)”, “[γ-33P-ATP]” for “[γ-^33P-ATP]”

Fgr human, sequence (P09769 whole entry): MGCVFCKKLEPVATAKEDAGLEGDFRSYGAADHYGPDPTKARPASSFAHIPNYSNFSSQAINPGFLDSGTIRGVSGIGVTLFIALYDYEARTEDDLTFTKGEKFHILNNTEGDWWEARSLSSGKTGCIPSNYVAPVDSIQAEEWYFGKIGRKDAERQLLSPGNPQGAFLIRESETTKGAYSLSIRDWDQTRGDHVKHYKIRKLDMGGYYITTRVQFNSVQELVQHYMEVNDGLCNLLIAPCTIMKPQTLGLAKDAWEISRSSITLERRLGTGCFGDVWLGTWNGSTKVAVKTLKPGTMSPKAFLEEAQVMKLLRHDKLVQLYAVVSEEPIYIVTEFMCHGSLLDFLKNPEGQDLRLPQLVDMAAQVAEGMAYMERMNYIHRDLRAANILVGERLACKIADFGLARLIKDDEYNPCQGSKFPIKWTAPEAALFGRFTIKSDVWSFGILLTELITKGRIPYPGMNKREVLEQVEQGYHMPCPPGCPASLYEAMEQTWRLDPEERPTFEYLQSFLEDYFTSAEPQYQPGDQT

For `CC(=O)NCCN1CCN(CCCOc2cc3ncnc4c3cc2OCCCNC(=O)[C@H](C)N(C)Cc2cc(F)c(Cl)cc2N4)CC1` [Compound 6], the inhibition at 1 µM in test [1] is > 80%; in test [2], > 80%; in test [3] it was > 80%; in test [4] it was 60 to 80%.

`CN1CCCCCOc2cc3c(ncnc3cc2OCCCNCCS(C)(=O)=O)Nc2cc(Cl)c(F)cc2C1` [Compound 18]: the inhibition at 1 µM in test [1], in test [2], in test [3] and in test [4] was > 80% each time.

As to `CN1CCCCCOc2cc3c(ncnc3cc2OCCCNCCS(C)(=O)=O)Nc2cc(Br)ccc2C1` [Compound 14], the inhibition at 1 µM was > 80% in test [1]; 60 to 80% in test [5]; > 80% in test [3]; > 80% in test [6]; > 80% in test [7]; > 80% in test [4].

For the compound `CN1CCCCCOc2cc3c(ncnc3cc2OCCCN2CCS(=O)(=O)CC2)Nc2cc(Cl)c(F)cc2C1` [Compound 19], the inhibition at 1 µM was > 80% in test [1]; 60 to 80% in test [5]; > 80% in test [2]; > 80% in test [6]; > 80% in test [7]; 60 to 80% in test [4].

For `C#Cc1ccc2c(c1)Nc1ncnc3cc(OCCCNCCS(C)(=O)=O)c(cc13)OCCCCCN(C)C2` [Compound 20], the inhibition at 1 µM in test [1], in test [5], in test [3], in test [6], in test [7] and in test [4] was > 80% each time.

As for `CN1CCCCCOc2cc3c(ncnc3cc2OC[C@H](O)CNCCOCCO)Nc2cc(Cl)c(F)cc2C1` [Compound 17], the inhibition at 1 µM in test [1], in test [2], in test [3] and in test [4] was > 80% throughout.

Consider `CC(=O)NCCNCCCOc1cc2ncnc3c2cc1OCCCNC(=O)[C@H](C)N(C)Cc1cc(F)c(Cl)cc1N3` [Compound 4], for which the inhibition at 1 µM in test [1] is > 80%; in test [2], 60 to 80%; in test [6], 30 to 60%; in test [7], > 80%; in test [4], 30 to 60%.

Turning to `CC(=O)OCCN(C)CCCOc1cc2ncnc3c2cc1OCCCNC(=O)[C@H](C)N(C)Cc1cc(F)c(Cl)cc1N3` [Compound 2], the inhibition at 1 µM in test [1] is > 80%; in test [5], 10 to 30%; in test [2], > 80%; in test [6], 30 to 60%; in test [7] it was > 80%; in test [4], 30 to 60%.

Take `COc1cc2ncnc3c2cc1OCCCN(CCCN1CCOCC1)C(=O)[C@H](CC(C)C)NC(=O)Cc1ccc(Br)cc1N3` [Int. 25]: the inhibition at 1 µM was in the range of 30 to 60% in test [1]; 30 to 60% in test [2]; 60 to 80% in test [3]; 10 to 30% in test [6]; 30 to 60% in test [7]; 30 to 60% in test [4].

As to `COCCOCCOc1cc2ncnc3c2cc1OCCCCCN(C)Cc1ccc(Br)cc1N3` [Int. 43], the inhibition at 1 µM in test [1] was > 80%; in test [5], 30 to 60%; in test [2], > 80%; in test [3], > 80%; in test [6], 60 to 80%; in test [7], 60 to 80%. In addition, in test [4], the inhibition at 1 µM was in the range of 10 to 30%.

Take `C[C@H]1C(=O)NCCCOc2cc3c(ncnc3cc2OCCCN2CCN(C(=O)OC(C)(C)C)CC2)Nc2cc(Cl)c(F)cc2CN1C` [Int. 16]: the inhibition at 1 µM in test [1] was > 80%; in test [5] it was 10 to 30%; in test [2], > 80%; in test [3] it was > 80%; in test [6], 60 to 80%; in test [7] it was > 80%. The inhibition at 1 µM in test [4] was in the range of 10 to 30%.

On to `COc1cc2ncnc3c2cc1OCCCN(CCN1CCOCC1)C(=O)CNC(=O)Cc1ccc(Cl)cc1N3` [Compound 15], for which the inhibition at 1 µM in test [1] lay within 30 to 60%; in test [2], 30 to 60%; in test [3], 60 to 80%; in test [6], 10 to 30%; in test [7] it was 30 to 60%; in test [4], 10 to 30%.

As to `CC(=O)NCCNCCCOc1cc2ncnc3c2cc1OCCCCCN(C)Cc1ccc(Br)cc1N3` [Compound 13], the inhibition at 1 µM in test [1], in test [5], in test [3], in test [6], in test [7] and in test [4] was > 80% each time.

For `CN1CCCCCOc2cc3c(ncnc3cc2OCCCNC(=O)OC(C)(C)C)Nc2cc(Br)ccc2C1` [Compound 11], the inhibition at 1 µM in test [1] lay within 60 to 80%; in test [5], 10 to 30%; in test [2], 60 to 80%; in test [3] it was 30 to 60%; in test [6] it was 30 to 60%; in test [7] it was 30 to 60%. The inhibition at 1 µM in test [4] lay within 10 to 30%.

As for `CC(=O)N(CCO)CCCOc1cc2ncnc3c2cc1OCCCNC(=O)[C@H](C)N(C)Cc1cc(F)c(Cl)cc1N3` [Compound 5], the inhibition at 1 µM was > 80% in test [1]; 10 to 30% in test [5]; 60 to 80% in test [2]; > 80% in test [3]; 30 to 60% in test [6]; > 80% in test [7]. Further, in test [4], the inhibition at 1 µM lay within 10 to 30%.
